# Measurements taken from PubChem BioAssay (NCI).
#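 These data come from cells grown in 96-well plates and exposed to compound for 48 hours at five concentrations. Here, GI50 denotes the concentration required for 50% inhibition of growth. TGI: concentration producing complete growth inhibition.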
# How the values were obtained:
# Assay in all cases: NCI tumour cell line growth inhibition, 48 h
# [1] = test system: T-47D breast
# [2] = test system: OVCAR-5 ovarian
# [3] = test system: SK-MEL-2 melanoma
# [4] = test system: NCI-H23 lung
# [5] = test system: 786-0 renal
# [6] = test system: SF-539 CNS
# [7] = test system: A498 renal
# [8] = test system: M14 melanoma
# [9] = test system: CCRF-CEM leukemia
# [10] = test system: MDA-MB-435
# [11] = test system: CAKI-1 renal
# [12] = test system: OVCAR-3 ovarian
# [13] = test system: HOP-92 NSCLC
# [14] = test system: HS 578T breast
# [15] = test system: MCF7 breast
# [16] = test system: RPMI-8226 leukemia
# [17] = test system: IGROV1 ovarian
# [18] = test system: SF-268 CNS
# [19] = test system: HOP-62 NSCLC
# [20] = test system: HL-60(TB) leukemia
# [21] = test system: TK-10 renal
# [22] = test system: U251 CNS
# [23] = test system: HCC-2998 colon
# [24] = test system: HCT-116 colon
# [25] = test system: SF-295 CNS
# [26] = test system: MOLT-4 leukemia
# [27] = test system: SNB-75 CNS
# [28] = test system: MDA-MB-231 breast
# [29] = test system: MALME-3M melanoma
# [30] = test system: UACC-257 melanoma
# [31] = test system: NCI-H460 lung
# [32] = test system: SN12C renal
# [33] = test system: ACHN renal
# [34] = test system: SNB-19 CNS
# [35] = test system: NCI-H522 lung
# [36] = test system: BT-549 breast
# [37] = test system: COLO 205 colon
# [38] = test system: SR leukemia
# [39] = test system: UO-31 renal
# [40] = test system: A549 NSCLC
# [41] = test system: SK-MEL-5 melanoma
# [42] = test system: LOX IMVI melanoma
# [43] = test system: HT29 colon
# [44] = test system: SK-MEL-28 melanoma
# [45] = test system: SK-OV-3 ovarian
# [46] = test system: NCI-H226 lung
# [47] = test system: K-562 leukemia
# [48] = test system: NCI/ADR-RES ovarian
# [49] = test system: PC-3 prostate
# [50] = test system: DU-145 prostate
# [51] = test system: OVCAR-8 ovarian
# [52] = test system: HCT-15 colon
# [53] = test system: KM12 colon
# [54] = test system: OVCAR-4 ovarian
# [55] = test system: SW-620 colon
# [56] = test system: UACC-62 melanoma
smiles,measurement,setting,value
O=C(Nc1ccc(CN2CCOCC2)cc1)c1ccc(-c2cc(Cl)ccc2Cl)o1,GI50,[1],5.34 µM
same,TGI,[1],22.4 µM
same,GI50,[2],15.7 µM
same,TGI,[2],61.1 µM
same,GI50,[3],14.7 µM
same,TGI,[3],30.5 µM
same,GI50,[4],12.8 µM
same,TGI,[4],31.8 µM
same,GI50,[5],11.8 µM
same,TGI,[5],26.1 µM
same,GI50,[6],8.69 µM
same,TGI,[6],24.9 µM
same,GI50,[7],10 µM
same,TGI,[7],22.1 µM
same,GI50,[8],11.1 µM
same,TGI,[8],32.4 µM
same,GI50,[9],6.02 µM
same,TGI,[9],49.1 µM
same,GI50,[10],11.6 µM
same,TGI,[10],29.2 µM
same,GI50,[11],13 µM
same,TGI,[11],56.4 µM
same,GI50,[12],15.3 µM
same,TGI,[12],39.2 µM
same,GI50,[13],10.2 µM
same,TGI,[13],33.7 µM
same,GI50,[14],12.5 µM
same,TGI,[14],34.4 µM
same,GI50,[15],9.98 µM
same,TGI,[15],26.3 µM
same,GI50,[16],3.49 µM
same,TGI,[16],17.7 µM
same,GI50,[17],23.5 µM
same,TGI,[17],61.6 µM
same,GI50,[18],16.5 µM
same,TGI,[18],49.1 µM
same,GI50,[19],15.5 µM
same,TGI,[19],38.5 µM
same,GI50,[20],4.45 µM
same,TGI,[20],20.9 µM
same,GI50,[21],13.1 µM
same,TGI,[21],29.1 µM
same,GI50,[22],4.62 µM
same,TGI,[22],19.6 µM
same,GI50,[23],9.29 µM
same,TGI,[23],23 µM
same,GI50,[24],5.92 µM
same,TGI,[24],21.4 µM
same,GI50,[25],5.38 µM
same,TGI,[25],28.5 µM
same,GI50,[26],4.34 µM
same,TGI,[26],20.5 µM
same,GI50,[27],16 µM
same,TGI,[27],36 µM
same,GI50,[28],10.7 µM
same,TGI,[28],29.5 µM
same,GI50,[29],8.74 µM
same,TGI,[29],29.2 µM
same,GI50,[30],11.2 µM
same,TGI,[30],24.4 µM
same,GI50,[31],3.54 µM
same,TGI,[31],12.4 µM
same,GI50,[32],16.4 µM
same,TGI,[32],52.6 µM
same,GI50,[33],18.4 µM
same,TGI,[33],97.9 µM
same,GI50,[34],16.2 µM
same,TGI,[34],35.6 µM
same,GI50,[35],10.2 µM
same,TGI,[35],26.6 µM
same,GI50,[36],7.79 µM
same,TGI,[36],43.1 µM
same,GI50,[37],2.24 µM
same,TGI,[37],4.19 µM
same,GI50,[38],2.35 µM
same,TGI,[38],8.99 µM
same,GI50,[39],18.3 µM
same,TGI,[39],78.1 µM
same,GI50,[40],7.48 µM
same,TGI,[40],32.4 µM
same,GI50,[41],4.45 µM
same,TGI,[41],16.7 µM
same,GI50,[42],2.65 µM
same,TGI,[42],13 µM
same,GI50,[43],2.96 µM
same,TGI,[43],12 µM
same,GI50,[44],11.9 µM
same,TGI,[44],26.6 µM
same,GI50,[45],15.1 µM
same,TGI,[45],30.6 µM
same,GI50,[46],12.2 µM
same,TGI,[46],33.6 µM
same,GI50,[47],2 µM
same,TGI,[47],6.09 µM
same,GI50,[48],17.4 µM
same,TGI,[48],> 100 µM
same,GI50,[49],8.63 µM
same,TGI,[49],36.4 µM
same,GI50,[50],18 µM
same,TGI,[50],63.3 µM
same,GI50,[51],11.4 µM
same,TGI,[51],51.3 µM
same,GI50,[52],3.29 µM
same,TGI,[52],34.4 µM
same,GI50,[53],4.41 µM
same,TGI,[53],16.3 µM
same,GI50,[54],17.6 µM
same,TGI,[54],67.1 µM
same,GI50,[55],3.33 µM
same,TGI,[55],11.5 µM
same,GI50,[56],2.39 µM
same,TGI,[56],6.88 µM
